Experiments:
[1] = system: Brown Norway rats; experiment: Brown Norway rat OVA model of asthma: BAL leukocytes, eosinophil peroxidase and myeloperoxidase; format: in vivo; details: administration prior to challenge with allergen
Protocol: The Brown Norway rat model was also employed to test the effects of TCR mimic peptides on reducing the symptoms of asthma. Similarly to the murine model described above, this model also involves immunisation with OVA. The model is described in Elwood, 1991. The model is illustrated in FIG. 5. In this model 10 rats were used per treatment group.
Rats were immunized against OVA by s.c. injection on Day 1, 14 and 21, and on Day 28 an inhalation challenge dose of OVA protein was administered. One day later (Day 29) the degree of airway inflammation was assessed by bronchoalveolar lavage (BAL), followed by counting of the infiltrating leukocytes and measurement of the activity of eosinophil peroxidase and myeloperoxidase.
Male Brown Norway rats (approximately 8 wks of age) were injected s.c. with 10 μg of OVA in 1 ml of alum adjuvant on day 1, 14 and 21. Concurrently, the animals received an i.p. injection of 0.25 ml Bordetella pertussis vaccine (Trivax-Evans Medical). Seven days. after the final sensitizing dose, the animals were restrained and exposed, nose only, to an aerosol of 10 mg/ml OVA for 1 h using a Wright nebuliser.
In these experiments the peptide was administered either intra-tracheally (i.t) (3 mg/ml, 50 μl in 0.9% saline per rat, 24 hours before OVA challenge), intra-nasally (i.n.) (50 mg/ml, 100 μl in 0.9% saline per rat, 24 hours before OVA challenge) or by inhalation (0.1 mg/ml in 0.9% saline, 50 ml delivered by aerosol at a flow rate of 1 ml/min, for a total of 50 minutes, using a Wright nebuliser to ten (10) rats, 24 h and 4 h prior to OVA challenge). […]
Twenty-four hours after the challenge with OVA, the rats from the different groups were anaesthetized by an i.p injection of sodium pentobarbital (100 mg/kg). […] The BAL fluid was centrifuged and the collected cells resuspended in 2 ml of PBS and the total number of leukocytes recovered were counted. The activity of eosinophil peroxidase and myeloperoxidase in the supernatant, following centrifugation (i.e., the cell-free BAL fluid) was determined by the method described in Schneider et al. 1997.

[2] = system: human patients with psoriasis, atopic eczema, lichen planus, or contact dermatitis; details: cited from earlier work
[3] = system: BALB/c mice; experiment: Whole body plethysmography of airway obstruction in the murine OVA model; format: in vivo, mouse; details: preliminary experiment, peptide before allergen challenge, days 0-6
Protocol: Mice were immunized against OVA by i.p. injection and fourteen days later an intra-nasal (i.n.) challenge dose of OVA protein was administered. Three days later the degree of airway inflammation was assessed by bronchoalveolar lavage (BAL,) followed by counting the infiltrating leukocytes. In addition, the lungs were sectioned and stained with haematoxylin and eosin for histological analysis. In a preliminary experiment, live mice were monitored after treatment using whole body plethysmography to assess the degree of airway obstruction. The effects of antigen challenge on airway hyperreactivity of mice in the experimental model described above can be measured by whole body plethysmography. This can be used to make an accurate comparison with the airway hyperreactivity observed in human asthmatics. The mice are anesthetized with pentobarbitol (70-90 mg/kg body weight, i.p.), and the jugular vein is cannulated with PE 10 silastic tubing. The tracheae are then intubated with a specially-angled 18 gauge needle, the chest opened, and the tubing connected to a Harvard ventilator (tidal volume=0.2 ml, frequency 120 breaths/min, positive end-expiratory pressure 2.5-3.0 cm H2 O) and placed in a whole body plethysmograph. This ventilation maintains normal arterial blood gases in the subject mouse. The dead space volume is 0.025 ml. […]

[4] = system: sensitised animals; details: applied topically following application of a contact allergen; cited from earlier work
[5] = system: T cells; experiment: Blocking of T cell function; format: cell-based; details: in vitro experiments
[6] = system: BALB/c mice; experiment: Murine OVA model of asthma: BAL cell counts and lung histology; format: in vivo, mouse; details: for eosinophilia on lung histology / eosinophil infiltration into lung tissue: peptide i.n. 24 h before i.n. OVA challenge
Protocol: A murine model in which immunization with ovalbumin (OVA) is used to induce asthma-like symptoms in normal Balb/c mice was employed. This model is described in Archer et al. 2004.
Mice were immunized against OVA by i.p. injection and fourteen days later an intra-nasal (i.n.) challenge dose of OVA protein was administered. Three days later the degree of airway inflammation was assessed by bronchoalveolar lavage (BAL,) followed by counting the infiltrating leukocytes. In addition, the lungs were sectioned and stained with haematoxylin and eosin for histological analysis. In a preliminary experiment, live mice were monitored after treatment using whole body plethysmography to assess the degree of airway obstruction.
Female BALB/c mice (6-8 wk of age) were injected i.p. with 10 μg of OVA (Sigma-Aldrich, St. Louis, Mo.) in 200 μl of alum adjuvant (Serva, Heidelberg, Germany) on day 1. Fourteen days after the i.p. immunization, mice were anaesthetized by an i.p. injection of a mixture of ketamine and xylazine (Sigma-Aldrich), and treated i.n. with 50 μl of PBS containing 100 μg of OVA.
In preliminary experiments the peptide or “mock” peptide was given at either of two different time points (24 h prior to i.p. OVA sensitization or 24 h prior to i.n. OVA challenge) at a final concentration of either 1 mM (solution) or 50 mM (suspension) in phosphate-buffered saline (PBS; 0.02 M sodium phosphate buffer with 0.15 M sodium chloride, pH adjusted to 7.4.). The 50 mM concentration of the TCR peptide was chosen because 500 μM was the optimal blocking concentration for T cells in in vitro experiments. However, experiments using titration of the peptide will be used to determine the optimal dose. A 100 μl volume of formulated peptide was administered to the mice intranasally. […]
Three days after the i.n. challenge with OVA, the mice from the different groups were sacrificed, the tracheas were cannulated, and a BAL was performed by flushing lung and airways five times with 1 ml of PBS. BAL cells were counted and spun on to glass slides using a cytospin (Shandon Southern Products, Asmoor, U.K.), and then stained with Diff-Quik (Roche Diagnostics, Mannheim, Germany) according to the manufacturer's instructions. […]
Percentages of macrophages, lymphocytes, neutrophils, and eosinophils were determined microscopically using standard histological criteria.
On days 1-6 after the last intranasal challenge with either OVA or saline, the lungs were analyzed by histology. […] The number of eosinophils in the lungs was quantified microscopically using a calibrated stage. […]

**Q.** For “NH2-Gly-Leu-Arg-Ile-Leu-Leu-Leu-Lys-Val-OH (H-GLRILLLKV-OH) [peptide, 9 amino acids, murine TCR-α transmembrane chain]”, which “eosinophil peroxidase activity in bronchoalveolar lavage fluid” value [1] is on record?
**A.** reduction

**Q.** And the “leukocyte infiltration into lung tissue” value [1]?
**A.** marked reduction

**Q.** And the “myeloperoxidase activity in bronchoalveolar lavage fluid” value [1]?
**A.** reduction

**Q.** What about the “therapeutic activity in human patients” value [2] of the same substance?
**A.** showed therapeutic activity

**Q.** And the “airway obstruction measured by whole body plethysmography” value [3]?
**A.** significant effects

**Q.** And the “airway obstruction measured by whole body plethysmography” value ([3]; listed as TCR mimic peptide)?
**A.** significant reduction

**Q.** What about the “development of contact sensitivity” value [4] of the same substance?
**A.** inhibited development of contact sensitivity

**Q.** And the “optimal blocking concentration for T cells” value [5]?
**A.** 500 µM

**Q.** What about the asthma symptoms ([6]; asthmatic mice, non-transgenic system) of the same substance?
**A.** reduces asthma symptoms

**Q.** And the “eosinophilia in BAL” value ([6]; group C: peptide i.n. 24 h before i.n. OVA challenge, two independent experiments, pooled data)?
**A.** significant decrease

**Q.** What about the “eosinophilia on lung histology / eosinophil infiltration into lung tissue” value ([6]; two independent experiments, pooled data) of the same substance?
**A.** significant decrease

**Q.** And the “eosinophilia on lung histology / eosinophil infiltration into lung tissue” value ([6]; two independent experiments, pooled data, listed as TCR mimic peptide)?
**A.** marked reduction
